Experimental data reported in patent US12064418B2, “Conjoint therapies for immunomodulation” (Aurigene Oncology Limited, priority 2017, dated 2024).

Tests used:
[1] = tested on: CT-26 tumor; assay: Tumor growth inhibition in the CT-26 syngeneic mouse tumor model; format: in vivo, mouse (female Balb/c); conditions: CT-26 tumor bearing Balb/c mice, vs Vehicle (H2O)
From the text: The purpose of this study is to determine the effect of Cmd 1 and Cmd 32 on growth inhibition (efficacy) in CT-26 tumor bearing mice when administered once daily by oral gavage as single agents or in combination. Cmd 1 and Cmd 32 are small molecule immune modulating agents for treatment of cancer.
Female Balb/c Mice from Charles River Laboratories −20-25 grams; 9-10 weeks old; Strain code: 028.
CT-26 cells were expanded in T225 tissue culture treated flasks in RPMI-1640 medium supplemented with 10% FBS ([…]) and cultured at 37° C. (5% CO2) in a humidified cell culture incubator. Cells were passaged every 3-4 days by detachment with 1× Trypsin/EDTA. Cells were re-plated on 5 flasks in complete RPMI1640 medium.
On the day of implantation, the cells were collected from flasks washed with phosphate buffer solution and detached with Trypsin/EDTA and washed once in phosphate buffer solution with no additives. Cells were resuspended in serum free DMEM at a final concentration of 1×10^6 cells/mL and kept on ice until administered to mice. The cells were kept on ice for no more than 1 hour before administration to the mice. […]
Animals were monitored until tumors were palpable and were then measured until tumor volume reached 100-200 mm^3. […] Tumor cells were counted on a MACSQuant Analyzer with propidium iodide (PI) for live/dead discrimination. […]

[2] = tested on: MC38 tumor; assay: Tumor growth inhibition in the MC38 syngenic model; format: in vivo, mouse (female C57BL/6); conditions: MC38 SC model, oral once a day
Protocol: Female C57BL/6 mice bred in-house were used in this efficacy study in the MC38 model. Animals were 6-8 weeks-old and weighed between 13 and 21 g. Animals were marked individually with tail marks and kept in cages that were identified by a cage card showing the study code, date of experimentation, sex and number of animals. During the experiment, the animals were weighed daily.
Tumor cells were cultured according to the procedure explained in the literature (U.S. Pat. No. 9,333,256; A. Filatenkov et al., J. Immunol., 2009. 183(11): 7196-7203). Tumor cells were ensured Mycoplasma free by performing Mycoplasma detection with MYCOALERT®Mycoplasma Detection Kit (Lonza) in accordance with manufacturer instructions. MYCOALERT® Assay is a selective biochemical test that exploits the activity of mycoplasmal enzymes. Viable Mycoplasma would be lysed and enzymes react with MYCOALERT® substrate, catalyzing the conversion of ADP to ATP. […]
MC38 cells were cultured according to the information in published literature (A. Filatenkov et al., J. Immunol., 2009. 183(11): 7196-7203; S. F. Ngiow et al., Cancer Res., 2011. 71(10): 3540-3551). […] Tumor volumes were measured 3 times a week, body weight and clinical signs were monitored every day. […]

[3] = tested on: intratumoral T cell populations; assay: Cell-surface marker assays of intratumoral T cell populations in the CT-26 model; format: in vivo, mouse (female Balb/c); conditions: Cmd 32 50 mg/kg, CT-26 tumors
Protocol: Animals were monitored until tumors were palpable and were then measured until tumor volume reached 100-200 mm^3. They were then randomized into groups using LabCat software and dosing started the following day. Blood was collected in EDTA tubes and kept on ice. Tumor were collected in 15 mL tubes with RPMI-1640 w/10% FBS on ice. Tumors proceeded to the Miltenyi Biotec mouse tumor dissociation kit. Tumor cells were counted on a MACSQuant Analyzer with propidium iodide (PI) for live/dead discrimination. Percent tumor growth inhibition on Day 20 is tabulated below (Table 11). Tumor volume of individual animals on day 20 and the tumor growth over the course of the study are represented in FIG. 1A and FIG. 1B respectively. Cell-surface marker assays were used to identify intratumoral T cell populations and calculate CD8+ (CTL; cytotoxic T-cell): Treg (regulatory T cell) ratio.

[4] = Mortality, body weight and clinical signs in the MC38 study; format: in vivo; conditions: Cmd 32 10 mg/kg group, one animal, no gross pathology, not reliably attributed to treatment
Protocol: Mortality/morbidity of animals, body weight loss and clinical symptoms were monitored. During study period all moribund animals were sacrificed and animals losing >20% of their body weight were also sacrificed. Body weights were recorded every day and clinical signs of toxicity were recorded once a day. Survival was recorded every day. A 15-20% loss of the body weight and/or animal death was considered as the criteria for toxicity. Behavioural, nesting and gross observations for clinical signs were made at least once every day during the course of the study.
At the end of the study (30 min after the last dose), animals were examined externally for possible abnormalities, weighed and sacrificed by CO2 asphyxiation.

CC(O)[C@H](NC(=O)N[C@@H](CC(N)=O)c1nc([C@@H](N)CO)no1)C(=O)O (stereo in doubt) [Cmd 1]
% TGI (Day 20), percent tumor growth inhibition ([1]; Cmd 1 100 mg/kg QD PO): 23% | Percent tumor growth inhibition (TGI) ([2]; Cmd 1 10 mg/kg, Cmd 32 0 mg/kg): 25%

CC(O)[C@H](NC(=O)N[C@@H](CCC(=O)O)c1nc([C@@H](N)CO)no1)C(=O)O (stereo in doubt) [Cmd 32]
% TGI (Day 20), percent tumor growth inhibition ([1]; Cmd 32 50 mg/kg QD PO): 24% | Tumor granzyme-B+/PD-1+/Tim-3+ T cells (percent of CD8) ([3]; FIG. 2B): increase | Tumor granzyme-B+/PD-1+/Tim-3- T cells (percent of CD8) ([3]; FIG. 2C): concomitant decrease | Percent tumor growth inhibition (TGI) ([2]; Cmd 32 10 mg/kg, Cmd 1 0 mg/kg): 10% | Mortality [4]: found dead
